Measured values taken from US10889554B2, “Excimer forming compounds” (THE GOVERNING COUNCIL OF THE UNIVERSITY OF TORONTO, priority 2013, dated 2021).

Experiments:
β-casein = target: T1, β-casein (Bos taurus, UniProt P02666); test: On-gel detection of proximally phosphorylated protein using GaCl3 complexes; format: binding
T1 construct: purchased Sigma Aldrich C6905-250MG
T1 sequence (P02666 16-224): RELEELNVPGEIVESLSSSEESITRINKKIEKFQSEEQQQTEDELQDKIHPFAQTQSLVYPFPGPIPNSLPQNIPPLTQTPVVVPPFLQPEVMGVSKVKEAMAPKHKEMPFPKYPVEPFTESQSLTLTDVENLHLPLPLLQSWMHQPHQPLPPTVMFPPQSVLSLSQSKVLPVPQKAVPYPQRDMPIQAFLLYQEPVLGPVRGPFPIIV
Method: (§1) Compound 8 was dissolved in 50 mM NaOAc buffer, pH 4.5, 50 mM NaCl, 10% DMSO and combined with 80, 160 or and 240 μM GaCl3 solutions. Each gel contained 4 lanes with equal amounts of BSA, ovalbumin (Ova), β-casein (β-cas) and lysozyme (Lyso) in each lane (left to right: 1, 0.5, 0.25 and 0.125 μg per protein per lane) (see FIG. 37). Gels were stained for 1 h with the sensor solution. Gels were first de-stained with 50 mM NaOAc buffer pH 4.5 for 2 h and then with 50 mM NaOAc buffer pH 4.0 20% acetonitrile for 40 h.
(§2) Compound 8 was dissolved in 100 mM NaOAc buffer, pH 4.5, 150 mM NaCl, 20% propylene glycol and combined with 10 and 15 μM GaCl3 solutions. Each gel contained 4 lanes with equal amounts of BSA, ovalbumin (Ova), β-casein (β-cas) and lysozyme (Lyso) in each lane (FIG. 40) left to right: 1, 0.5, 0.25 and 0.125 μg per protein per lane). Gels were stained for 1.5 h with the sensor solution. Destaining was performed for variable time (specified at the top) with 50 mM NaOAc, pH 4.0, 20% acetonitrile. Gels were rinsed with MiliQ water for 5 min prior to imaging. Images were acquired using ChemiDoc MP, using a 530 nm emission filter and UV trans excitation.
as §1, with “Compound 2” for “Compound 8”, “lane) (FIG. 42).” for “lane) (see FIG. 37).”, “h. […] However with the increased destaining time the intensity of β-casein band relative to other proteins was increasing, resulting in a 6.7-fold higher intensity over the distally phosphorylated protein ovalbumin. Lane containing 1 μg of each protein was analyzed (FIG. 43).” for “h.”
as §2, with “2” for “8”, “45)” for “40)”, “acetonitrile (see FIGS. 45 and 46).” for “acetonitrile.”

[1] = Titration of compound with GaCl3 at different pH (fluorescence at 376 nm); format: binding; details: 40 μM compound
Method: GaCl3 was titrated into 40 μM (constant) of compound 2 from 500 to 0.25 μM at pH 4.5 (50 mM NaOAc) and 7.5 (HEPES). Fluorescence intensity was measured at 376 and 476 nm at 350 nm excitation. […] At pH 4.5 saturation is observed at 10 μM of GaCl3.
40 μM of compound 3 was titrated with GaCl3 (250-0.12 μM) and the change in emission at 376 nm was recorded upon excitation at 350 nm as shown in FIG. 48.

MRC-9 cells = test: Fixed cell imaging; format: cell-based, human
Method: MRC-9 cells were plated on an 8-chamber tissue culture treated glass slide (BD Falcon; 40,000 cells/chamber) and cultured for two days at 37° C., 5% CO2. Media was removed and cells were incubated with 200 μL of 3.4% formaldehyde solution in 1×PBS for 10 min. Cells were washed 3×3 min with PBS and stored in PBS at 4° C. until staining. Cells were washed 3× with 50 mM HEPES and incubated in 40 μM solution of compound 1 in complex with Zn^2+ (triflate salt) dissolved in 50 mM HEPES, 75 mM NaCl, 10% DMSO for 1 h. Cells were rinsed 2× with 50 mM HEPES and mounted with a mounting solution and a cover slip.

[2] = tested on: proximally phosphorylated proteins (α-casein, β-casein and D-α-casein); test: In-solution detection of proteins; format: binding, Bos taurus; details: pH 7.5, 50 mM HEPES
Text: Non-phosphorylated (BSA and lysozyme) and distally phosphorylated negative control proteins (ovalbumin) were used in detection methods for in-solution, on gel and on blot applications. Dephosphorylated α-casein (D-α-casein), β-casein and α-casein served as proximally phosphorylated positive controls (see Table 2). The phosphosites presented in Table 2 were obtained from the PhosphoSitePlus database or a UniProt database.
Various conditions for the detection of proximally phosphorylated proteins and proteins in aqueous solution are shown in Table 3. Proteins were dissolved in a buffer at various concentrations (normally 100 μM to 40 nM), and combined with 40 μM of compound 1 in complex with Zn^2+ (triflate salt) dissolved in the same buffer on a 384 well flat bottom black plate. The mixture was incubated for 20 minutes and fluorescence emission intensity at 476 nm (10-20 nm bandwidth) was measured using a Tecan M1000 microplate reader, upon excitation at 350 nm (5 nm bandwidth) at 400 Hz. The different conditions tested were assessed based on the ratios of signal intensity of positive to negative control analytes and signal intensity in general. Among the parameters assessed in this study and using these specific control proteins, the following conditions were selected for proteins studies: pH 5.5 50 mM NaOAc, 50 mM NaCl, 5% DMSO (see FIG. 27). […] Depending on the number of proximally di-phosphorylated sites, lower detection limits could be achieved by using lower concentration of a sensor.
Using same methods as described in Example 1.1c, Zn^2+ (triflate salt) complexes of compounds 1 (top left), compound 9 (top right), compound 15 (middle left), and compound 14 (middle right) were tested in pH 7.5, 50 mM HEPES, 75 mM NaCl, 20% DMSO (see FIG. 28).
Using same methods as described in Example 14, 40 and 20 μM of Zn^2+ (triflate salt) complexes of compound 1 (top) and compound 12 (bottom) (FIG. 29), were tested in pH 7.5, 50 mM HEPES, 5% DMSO.
Using same methods as described above, 60, 40, 20 and 10 μM of Zn^2+ (triflate salt) complexed with compound 12 (FIG. 30), were titrated with 80-0.04 μM of proteins in pH 7.5, 50 mM HEPES, 5% DMSO.

[3] = tested on: proximally phosphorylated peptides; test: Detection of proximally phosphorylated peptides in aqueous solution (384 well plate, emission 476 nm); format: binding
Method: In one example 40 μM of compound 1 pre-metallated with zinc(II) triflate (referred to as “Zn^2+ pre-metallation” in FIG. 13; procedure described in example) was titrated with 80-0.04 μM of pY and pYpY peptides in 50 mM HEPES pH 7.5, 5% DMSO. In another example, 40 μM of compound 1 was dissolved in 50 mM HEPES pH 7.5, 5% DMSO, which contained 40 μM of zinc(II) triflate (referred to as “in situ Zn^2+ metallation” in FIG. 13) and was titrated with 80-0.04 μM of pY and pYpY peptides. Fluorescence measurements were performed as described in Example 2.
Various conditions for the detection of proximally phosphorylated peptides and proteins in aqueous solution are shown in Table 1. For the screens, analytes (peptides) were dissolved in a specific buffer at various concentrations (normally 100 μM to 40 nM), and combined with 40 μM of compound 1 in complex with Zn^2+ (triflate salt) dissolved in the same buffer on a 384 well flat bottom black plate. The mixture was incubated for 20 minutes and fluorescence emission intensity at 476 nm (10-20 nm bandwidth) was measured using a Tecan M1000 microplate reader, upon excitation at 350 nm (5 nm bandwidth) at 400 Hz. The different conditions tested were assessed based on the ratios of signal intensity of positive to negative control analytes and signal intensity in general.
Peptides containing two phosphotyrosine residues, spaced by 2-5 alanine residues, were titrated into 40 μM solution of compound 1 in complex with Zn^2+ (triflate salt) (pH 7.5 50 mM HEPES, 10% propylene, 25 mM NaCl) from 80 μM to 40 nM (FIG. 16). Y-axis is Δ Fluorescence Intensity as defined by the formula in example 2.
Using the same methods as described in Example 6, Zn^2+ (triflate salt) complexes of compounds 1, compound 9, compound 15, compound 14 were tested in pH 7.5, 50 mM HEPES, 25 mM NaCl, 10% propylene glycol.
Using the same methods as described in Example 6, Zn^2+ (triflate salt) complexes of compound 1 and compound 12 were tested in pH 7.5, 50 mM HEPES, 5% DMSO.

[4] = tested on: MRC-9 and A549 cell lines; test: Fixed cell imaging: monitoring increase in proximal phosphorylation; format: cell-based, human; details: pre-treatment before fixation
fixed cells = test: Fixed cell imaging: monitoring decrease in proximal phosphorylation; format: cell-based; details: 22 nM, pre-treatment prior to cell fixation
Method: (3 h prior to fixation, media was removed and 22 nM of Staurosporine (BioShop, cat. STA001) solution in fresh media was added and incubated at 37° C., 5% CO2 for 3 h).

[5] = 100 mM NaOAc pH 4.5, 150 mM NaCl, 20% propylene glycol, destain 50 mM NaOAc, pH 4.0, 20% acetonitrile

## O=C(O)CN(CC(=O)O)c1ccccc1OCCOc1cc(NC(=O)CCCc2ccc3ccc4cccc5ccc2c3c45)ccc1N(CC(=O)O)CC(=O)O [compound 2, 2,2′-((2-(2-(2-(bis(carboxymethyl)amino)-5-(4-(pyren-1-yl)butanamido)phenoxy)ethoxy)phenyl)azanediyl)diacetic acid]
β-casein; 80 μM compound, 1:1 GaCl3, stained 1 h
  selectivity for β-casein after 2 h destaining: did not result in the selective staining
β-casein; 80 μM compound, 1:1 GaCl3, stained 1 h, 40 h destaining, 1 μg per protein
  β-casein over distally phosphorylated ovalbumin: 6.7 fold
β-casein; 50 mM NaOAc pH 4.5, 50 mM NaCl, 10% DMSO, 160 or 240 μM GaCl3
  selectivity for β-casein with more than 1:1 equivalent of compound:GaCl3: did not result in good selectivity
β-casein; 100 mM NaOAc pH 4.5, 150 mM NaCl, 20% propylene glycol, 1:1 and 1:1.5 compound:GaCl3, stained 1.5 h
  selective staining for β-casein, no destaining: did not result in selective staining
β-casein; [5]
  staining of β-casein band following 16 h destain: most prominently stained band
  β-casein signal over distally phosphorylated ovalbumin following 16 h destain: 10 fold
[1]; pH 4.5 (50 mM NaOAc)
  GaCl3 concentration at which saturation is observed: 10 µM
[1]; pH 7.5 (HEPES)
  saturation at higher concentration of GaCl3: saturation was not observed

## O=C(O)CN1CCN(CCCCc2ccc3ccc4cccc5ccc2c3c45)CCN(CC(=O)O)CCN(CC(=O)O)CC1 [compound 3, 2,2′,2″-(10-(4-(pyren-1-yl)butyl)-1,4,7,10-tetraazacyclododecane-1,4,7-triyl)triacetic acid]
[1]; pH 5.5 and 4.5, 50 mM NaOAc
  concentrations at which Ga^3+-compound complex formation was observed: single-digit

## c1cc2ccc3ccc(CN4CCNCCNCCNCC4)c4ccc(c1)c2c34 [compound 1, 1-(Pyren-1-methyl)-1,4,7,10-tetraazacyclododecane]
MRC-9 cells
  intracellular fluorescence, metallated vs non-metallated: only compound 1-Zn^2+ complex, is capable of inducing intracellular fluorescence
[2]; Zn^2+ (triflate salt) complexes, 75 mM NaCl, 20% DMSO
  efficiency at detecting the proximally phosphorylated proteins: comparable efficiency
[3]; Zn^2+ triflate complex, 40 μM
  signal with mono-phosphorylated or non-phosphorylated peptides: did not produce a significant signal

## IL-6: a JAK2 pathway-inducing agent
[4]
  fluorescent signal from compound 1-Zn^2+ in pre-treated cells: significantly increased

## c1cc2ccc3ccc(CN4CCCNCCNCCCNCC4)c4ccc(c1)c2c34 [compound 12, 1-(pyren-1-ylmethyl)-1,4,8,11-tetraazacyclotetradecane]
[2]; 60, 40, 20 and 10 μM Zn^2+ complex, 5% DMSO
  detection limit on lowering the concentration of the sensor: improved
[3]; Zn^2+ (triflate salt) complex, pH 7.5, 50 mM HEPES, 5% DMSO
  detecting proximally phosphorylated peptides: potent

## CN[C@@H]1C[C@H]2O[C@@](C)([C@@H]1OC)n1c3ccccc3c3c4c(c5c6ccccc6n2c5c31)C(=O)NC4 [staurosporine]
Fixed cells
  fluorescence intensity of compound 1-Zn^2+ complex compared to untreated control: time-dependent decrease
